Reference: patent US6083955A, “Arylethenesulfonamide derivatives and drug composition containing the same” (Yamanouchi Pharmaceutical Co., Ltd., priority 1995, dated 2000)

System: big ET-1-induced pressor responses
Test: Test on Inhibition of Big ET-1-induced Pressor Responses in Pithed Rats
Type: in vivo, male Wistar rats
Conditions: Rattus norvegicus, 0.5 h; oral administration 30 minutes before pithing; dose shifting big ET-1 pressor dose-response curve two-fold to the right; read-out: DR2
Procedure: (3) Test on Inhibition of Big ET-1-induced Pressor Responses in Pithed Rats
Male Wistar rats (body weight: […]) were anesthetized by sodium pentobarbital (60 mg/kg, i.p.) and a cannula for artificial ventilation was inserted into a trachea. Spinal cord was broken by inserting a rod made of steel thereinto and then the rat was connected to an artificial respirator. A catheter for measuring the systemic arterial blood pressure was inserted into a carotid artery while another catheter for administering big ET-1 was inserted into a femoral vein. After 30 minutes from the oral administration of a test compound at doses of 0.1 to 10 mg/kg, the rat was pithed and then big ET-1 was intravenously administered at doses of 0.1 to 3.2 nmol/kg in a cumulative manner. Activity of the test compound was evaluated by the dose (DR2 value) whereby the dose-response curve of pressor responses by big ET-1 to the right hand direction to an extent of two-fold.

Point of comparison: COc1ccccc1Oc1c(NS(=O)(=O)C=Cc2cccs2)nc(-c2ncccn2)nc1OC [Example 42, N-[6-Methoxy-5-(2-methoxyphenoxy)-2-(2-pyrimidinyl)-4-pyrimidinyl]-2-(2-thienyl)ethenesulfonamide], ED (2-fold shift) 1.85 mg/kg. Against it:
- COc1ccccc1Oc1c(NS(=O)(=O)c2ccc(C(C)(C)C)cc2)nc(-c2ncccn2)nc1OCCO [Comparative Compound, Bosentan, reference compound] — 17-fold higher, 32 mg/kg

Same assay, conditions: Rattus norvegicus, po, 0.5 h, read-out: DR2

Point of comparison: CCC(=Cc1ccccc1)S(=O)(=O)Nc1nc(-c2ncccn2)nc(OC)c1Oc1ccccc1OC.[K] [Example 38, Potassium N-[6-methoxy-5-(2-methoxyphenoxy)-2-(2pyrimidinyl)-4-pyrimidinyl]-1-ethyl-2-phenylethenesulfonamidate], ED (2-fold shift) 0.65 mg/kg. Against it:
- COc1ccccc1Oc1c(NS(=O)(=O)C=Cc2ccccc2)nc(-c2ncccn2)nc1OC [Example 2, N-[6-methoxy-5-(2-methoxyphenoxy)-2-(2-pyrimidinyl)-4-pyrimidinyl]-2-phenylethenesulfonamide] — within 1.5-fold, 0.61 mg/kg

Molecular target: T1, human ETA receptor (Homo sapiens, UniProt P25101)
T1 sequence (P25101 21-427): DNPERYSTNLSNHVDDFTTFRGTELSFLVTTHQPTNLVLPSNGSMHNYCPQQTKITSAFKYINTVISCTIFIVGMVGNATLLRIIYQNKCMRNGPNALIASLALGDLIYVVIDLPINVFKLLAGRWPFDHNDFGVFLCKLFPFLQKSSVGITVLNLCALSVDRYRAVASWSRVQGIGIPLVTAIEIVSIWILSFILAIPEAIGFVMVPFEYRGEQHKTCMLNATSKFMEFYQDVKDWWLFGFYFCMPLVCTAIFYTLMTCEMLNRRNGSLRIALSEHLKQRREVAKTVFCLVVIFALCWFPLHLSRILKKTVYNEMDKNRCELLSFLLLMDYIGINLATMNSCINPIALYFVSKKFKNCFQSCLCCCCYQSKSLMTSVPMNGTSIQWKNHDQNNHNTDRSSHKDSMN
Test: Test on Inhibition of Binding of Endothelin (ET-1) to Human ETA Receptor
Conditions: not given
Procedure: (1) Test on Inhibition of Binding of Endothelin (ET-1) to Human ETA Receptor
cDNA of human ETA receptor was obtained from mRNA of human lung by means of an RT-PCR and then transferred into pEF-BOS, a vector for expression, to prepare plasmid. The prepared plasmid was added to a culture of COS-1 cells (cell strain derived from renal cells of African green monkey) with DEAE-dextran and cDNA of human ETA was transfected to COS-1 cells. Then it was incubated for three days in a conventional DMEM (containing 10% of FBS) and the COS-1 cells recovered therefrom were suspended in a hypotonic buffer (10 mM Tris-HCl and 5 mM EDTA; pH 7.4) followed by homogenizing the cells using a Polytron. The suspension in which the cells were homogenized was subjected to an ultracentrifugation (100,000G for 30 minutes at 4° C.), the resulting precipitate (cell membrane fraction) was re-suspended in a Tris buffer (50 mM Tris-HCl and 10 mM MgCl2; pH 7.4) and the suspension was preserved by freezing at -80° C. (protein amount: about 1 mg/ml).
In conducting the experiment of binding the receptor, the frozen cell membrane sample was melted and resuspended in an incubation buffer (50 mM Tris-HCl, 10 mM MgCl2 and 0.01% bovine serum albumin; pH 7.4). The membrane suspension (200 μl) containing 1.25 μg as a membrane protein, 25 μl of an incubation buffer containing a test compound in various concentrations and 25 μl of [^125 I] ET-1 (specific activity: 2,200 Ci/mM; final concentration: […]) were incubated together at 25° C. for three hours and then filtered through a glass fiber filter using a Brandel cell harvester. Measurement of radioactivity on the glass fiber filter was conducted by means of a gamma-counter (counting efficiency: 81%). Nonspecific binding was determined by the use of a test buffer containing 0.1 μM of ET-1. Inhibiting activity of the test compound to [^125 I] ET-1 was calculated as a concentration (IC50) necessary for inhibiting 50% of the specific binding.

With COc1ccccc1Oc1c(NS(=O)(=O)C=Cc2ccccc2)nc(-c2ncccn2)nc1OC [Example 2, N-[6-methoxy-5-(2-methoxyphenoxy)-2-(2-pyrimidinyl)-4-pyrimidinyl]-2-phenylethenesulfonamide] the IC50 was 3.1 nM.

Same assay, conditions: inhibition of [^125 I] ET-1 specific binding; COS-1 cell membranes expressing human ETA; pH 7.4, 25° C., three hours; read-out: IC50

Point of comparison: COc1ccccc1Oc1c(NS(=O)(=O)C=Cc2ccccc2)nc(-c2ccoc2)nc1OC [Example 34, N-[6-Methoxy-5-(2-methoxyphenoxy)-2-(3-furyl)-4-pyrimidinyl]-2-phenylethenesulfonamide], IC50 9.7 nM. Against it:
- COc1ccccc1Oc1c(NS(=O)(=O)C=Cc2ccccc2)nc(-c2ncccn2)nc1OCCO [Example 1, potassium N-[6-(2-hydroxyethoxy)-5-(2-methoxyphenoxy)-2-(2-pyrimidinyl)-4-pyrimidinyl]-2-phenylethenesulfonamidate] — 6.1-fold lower, 1.6 nM
- COCCOc1nc(-c2ncccn2)nc(NS(=O)(=O)C=Cc2ccccc2)c1Oc1ccccc1OC [Example 6, N-[6-(2-Methoxyethoxy)-5-(2-methoxyphenoxy)-2-(2-pyrimidinyl)-4-pyrimidinyl]-2-phenylethenesulfonamide] — 2-fold lower, 4.8 nM
- COc1ccccc1Oc1c(NS(=O)(=O)C=Cc2ccccc2)nc(-c2ncccn2)nc1OCCF [Example 8, N-[6-(2-fluoroethoxy)-5-(2-methoxyphenoxy)-2-(2-pyrimidinyl)-4-pyrimidinyl]-2-phenylethenesulfonamide] — 3.3-fold lower, 2.9 nM
- C#CCOc1nc(-c2ncccn2)nc(NS(=O)(=O)C=Cc2ccccc2)c1Oc1ccccc1OC [Example 13, N-[6-(2-propynyloxy)-5-(2-methoxyphenoxy)-2-(2-pyrimidinyl)-4-pyrimidinyl]-2-phenylethenesulfonamide] — 1.8-fold lower, 5.5 nM
- COc1cc(OC)cc(-c2nc(NS(=O)(=O)C=Cc3ccccc3)c(Oc3ccccc3OC)c(OC)n2)c1 [Example 22, N-[2-(3,5-Dimethoxyphenyl)-6-methoxy-5-(2-methoxyphenoxy)-4-pyrimidinyl]-2-phenylethenesulfonamide] — within 1.5-fold, 9.5 nM
- COc1ccccc1Oc1c(NS(=O)(=O)C=Cc2ccccc2)nc(-c2ccncc2)nc1OC [Example 27, N-[6-Methoxy-5-(2-methoxyphenoxy)-2-(4-pyridyl)-4-pyrimidinyl]-2-phenylethenesulfonamide] — 1.6-fold lower, 5.9 nM
- COc1ccccc1Oc1c(NS(=O)(=O)C=Cc2ccccc2)nc(-c2ccsc2)nc1OC [Example 32, N-[6-Methoxy-5-(2-methoxyphenoxy)-2-(3-thienyl)-4-pyrimidinyl]-2-phenylethenesulfonamide] — 1.9-fold lower, 5.1 nM
- COc1ccccc1Oc1c(NS(=O)(=O)C=Cc2ccccc2)nc(-c2csc(C)n2)nc1OC [Example 33, N-[6-Methoxy-5-(2-methoxyphenoxy)-2-(2-methyl-4-thiazolyl)-4-pyrimidinyl]-2-phenylethenesulfonamide] — within 1.5-fold, 7.7 nM
- COc1ccccc1Oc1c(NS(=O)(=O)C(C)=Cc2ccccc2)nc(-c2ncccn2)nc1OC [Example 37, N-[6-Methoxy-5-(2-methoxyphenoxy)-2-(2-pyrimidinyl)-4-pyrimidinyl]-1-methyl-2-phenylethenesulfonamide] — 6.1-fold lower, 1.6 nM
- CCC(=Cc1ccccc1)S(=O)(=O)Nc1nc(-c2ncccn2)nc(OC)c1Oc1ccccc1OC.[K] [Example 38, Potassium N-[6-methoxy-5-(2-methoxyphenoxy)-2-(2pyrimidinyl)-4-pyrimidinyl]-1-ethyl-2-phenylethenesulfonamidate] — 2.9-fold lower, 3.3 nM
- COc1ccccc1Oc1c(NS(=O)(=O)C=Cc2ccc(C)cc2)nc(-c2ncccn2)nc1OC [Example 39, N-[6-Methoxy-5-(2-methoxyphenoxy)-2-(2-pyrimidinyl)-4-pyrimidinyl]-2-(4-methylphenyl)ethenesulfonamide] — 3.5-fold lower, 2.8 nM
- COc1ccccc1Oc1c(NS(=O)(=O)C=Cc2cccs2)nc(-c2ncccn2)nc1OC [Example 42, N-[6-Methoxy-5-(2-methoxyphenoxy)-2-(2-pyrimidinyl)-4-pyrimidinyl]-2-(2-thienyl)ethenesulfonamide] — 6.5-fold lower, 1.5 nM
- COc1ccccc1Oc1c(NS(=O)(=O)C=Cc2ccc3ccccc3c2)nc(-c2ncccn2)nc1OC [Example 45, N-[6-Methoxy-5-(2-methoxyphenoxy)-2-(2-pyrimidinyl)-4-pyrimidinyl]-2-(2-naphthyl)ethenesulfonamide] — 2.2-fold lower, 4.4 nM
- COc1ccccc1Oc1c(NS(=O)(=O)C=Cc2ccccc2Cl)nc(-c2ncccn2)nc1OC [Example 47, N-[6-Methoxy-5-(2-methoxyphenoxy)-2-(2-pyrimidinyl)-4-pyrimidinyl]-2-(2-chlorophenyl)ethenesulfonamide] — 3.2-fold lower, 3 nM
